How the values were obtained:
[1] = parameters: method as in doi:10.31925/farmacia.2018.5.20, PMID 30248903; settings: acute inflammation, compared to diclofenac; cited from earlier work
[2] = parameters: method as in doi:10.31925/farmacia.2018.5.20, PMID 30248903; settings: in vivo; cited from earlier work
[3] = Lipophilicity by reversed-phase thin-layer chromatography (RP-TLC), isopropanol-water mobile phase; format: physicochemical; settings: for mRM (arithmetic mean of the experimental retention factors RM): RP-18F254s plates, isopropanol 70–90% in water; for RM0 (relative lipophilicity, RM extrapolated to pure water): Soczewinski Wachtmeister equation, isopropanol 70–90%; for lipophilicity (in words): chromatographic lipophilicity profile / lipophilicity descriptors; for PC1(RM): score of first principal component of RM values at isopropanol 70–90%; for b (slope): slope of RM versus isopropanol concentration; for φ0 (chromatographic hydrophobic index): φ0 = RM0/b
Procedure: Lipophilicity was assessed by RP-TLC, using RP-[…] standard silica gel plates (20 × 10 cm) as the stationary phase. An isopropanol:water binary mixture was used as the mobile phase, with different isopropanol concentrations 70%, 75%, 80%, 85%, 90% for thiazolo[3,2-b][1,2,4]triazole (1a–16a) and imidazo[2,1-b][1,3,4]thiadiazole (1b–16b) compounds.
The standard solutions (1 mg/mL) used to investigate the lipophilicity of the synthesized compounds were prepared in dichloromethane (1a–16a compounds) and dimethylsulfoxide (1b–16b compounds). From the obtained solutions, 2 µL was applied manually on the chromatographic plates, at 15 mm from the baseline and 5 mm from the edges of the plate at a spot distance of 12 mm. This procedure was repeated three times. The chromatographic plate upward elution was performed in a chromatographic chamber previously saturated for 30 min with mobile phase, at normal atmospheric pressure and room temperature. The migration distance of the eluent was 80 mm. The chromatographic plates were visually inspected under UV light at λ = 254 nm to identify the compounds. In order to minimize possible experimental errors, three measurements were performed for each mobile phase. The retention factors (Rf) were calculated as the average of three determinations in each case.
Based on the Rf values, a variety of parameters can be determined to estimate the lipophilicity of the compounds. The isocratic retention factor (RM) was determined using the Bate–Smith and Westall equation [34]:RM = log(1/Rf − 1) where Rf = x/y and x = the migration distance of the compound, and y = the migration distance of the solvent front.
There is usually a linear correlation between the RM values and the concentration of the organic component in the mobile phase. For a better estimation of lipophilicity, RM0 was determined as the extrapolated retention factor, considering pure water as the mobile phase (Soczewinski Wachtmeister equation):RM = RM0 + bC where b is the slope of the curve, which indicates the rate at which the solubility of the compound increases in the mobile phase, C is the concentration of the isopropanol in the mobile phase, and RM0 is the RM of the compound when the concentration of isopropanol is zero (extrapolated value).
To estimate the lipophilicity of the compounds, φ0, representing the chromatographic hydrophobicity index, was also determined. It corresponds to the percentage (by volume) of the organic component in the mobile phase and can be determined according to the following formula:φ0 = RM0/b
In order to assess the lipophilicity of compounds, other more relevant lipophilicity parameters have been used, such as the arithmetic mean of the experimental retention factors (mRM), and the score associated with the first principal component (PC1(RM)) obtained by applying principal component analysis (PCA) to the retention parameters RM [35, 36]. The determination of these parameters eliminates the errors that appear during the extrapolation procedure (when determining RM0) so that the results are more accurate.

SMILES | in vivo anti-inflammatory activity [1] | pain threshold [2] | mRM (arithmetic mean of the experimental retention factors RM) [3] | RM0 (relative lipophilicity, RM extrapolated to pure water) [3] | lipophilicity (in words) [3] | PC1(RM) [3] | b (slope) [3] | φ0 (chromatographic hydrophobic index) [3]
NS(=O)(=O)c1ccc(-c2nn3cc(-c4ccccc4)nc3s2)cc1 [Compound 13b] | significantly reduced acute inflammation in vivo | increased pain threshold | −0.464 | 0.988 | the least lipophilic compounds | 1.554 | −0.018 | 53.99
c1ccc(-c2nc3scc(-c4ccccc4)n3n2)cc1 [Compound 1a] | significantly reduced acute inflammation in vivo | increased pain threshold | 0.056 | 1.810 | – | −0.309 | −0.022 | 82.63
COc1ccc(-c2nc3scc(-c4ccc(OC)cc4)n3n2)cc1 [Compound 12a] | significantly reduced acute inflammation in vivo | increased pain threshold | −0.013 | 1.696 | low lipophilicity | −0.058 | −0.021 | 79.62
NS(=O)(=O)c1ccc(-c2nc3scc(-c4ccc(Br)cc4)n3n2)cc1 [Compound 14a] | – | – | −0.435 | 1.309 | – | 1.448 | −0.022 | 60.05
COc1ccc(-c2csc3nc(-c4ccc(Cl)cc4)nn23)cc1 [Compound 8a] | – | – | 0.166 | 2.126 | – | −0.701 | −0.025 | 86.79
COc1ccc(-c2nn3cc(-c4ccc(Br)cc4)nc3s2)cc1 [Compound 10b] | – | – | 0.222 | 1.990 | high lipophilicity | −0.899 | −0.022 | 90.04
Brc1ccc(-c2cn3nc(-c4ccccc4)sc3n2)cc1 [Compound 2b] | – | – | 0.174 | 2.507 | high lipophilicity | −0.730 | −0.029 | 85.86
COc1ccc(-c2nc3scc(-c4ccc(Br)cc4)n3n2)cc1 [Compound 10a] | – | – | 0.168 | 2.132 | high lipophilicity | −0.711 | −0.025 | 87.00
Brc1ccc(-c2csc3nc(-c4ccccc4)nn23)cc1 [Compound 2a] | – | – | 0.200 | 2.130 | high lipophilicity | −0.821 | −0.024 | 88.37
NS(=O)(=O)c1ccc(-c2nn3cc(-c4ccc(Br)cc4)nc3s2)cc1 [Compound 14b] | – | – | −0.416 | 1.399 | – | 1.382 | −0.023 | 62.17
COc1ccc(-c2nc3scc(-c4ccc(C(F)(F)F)cc4)n3n2)cc1 [Compound 11a] | – | – | 0.032 | 2.217 | – | −0.226 | −0.027 | 81.22
